The test system of one assay is K-562. Description: NCI IVCLSP growth inhibition (SRB), K-562. The class given is cell-based, human. The note with it: 48 h drug incubation. The procedure: (§1) FIG. 1 presents nine compounds that were tested using the National Cancer Institute (NCI) 60 human tumor cell lines. The cells lines, which represent leukemia, melanoma, and cancers of the lung, colon, brain, ovary, breast, prostate, and kidney, are listed in Table 1.
(§2) Compounds 1-9 were tested according to the NCI Developmental Therapeutics Program (DTP) In Vitro Cell Line Screening Project (IVCLSP). […] Methodology for testing under the IVCLSP is as follows: The human tumor cell lines of the cancer screening panel are grown in RPMI 1640 medium containing 5% fetal bovine serum and 2 mM L-glutamine. […]
(§3) Following drug addition, the plates are incubated for an additional 48 h at 37° C., 5% CO2, 95% air, and 100% relative humidity. […] Bound stain is subsequently solubilized with 10 mM trizma base, and the absorbance is read on an automated plate reader at a wavelength of 515 nm. […] Using the seven absorbance measurements [time zero, (Tz), control growth, (C), and test growth in the presence of drug at the five concentration levels (Ti)], the percentage growth is calculated at each of the drug concentrations levels. Percentage growth inhibition is calculated as: [(Ti−Tz)/(C−Tz)]×100 for concentrations for which Ti>/=Tz [(Ti−Tz)/Tz]×100 for concentrations for which Ti<Tz.
(§4) Three dose response parameters are calculated for each experimental agent. […]

The next assay concerns RPM1-8226. Kind of assay: NCI IVCLSP growth inhibition (SRB), RPM1-8226. The class given is cell-based, human. Conditions: 48 h drug incubation. The procedure: as §1, §2, §3, §4
Another assay has as its system NCI-H226. Kind of assay: NCI IVCLSP growth inhibition (SRB), NCI-H226. The class given is cell-based, human. Conditions: 48 h drug incubation. How it is done:
as §1, §2, §3, §4

The subject of the next assay is NCI-H322M. Kind of assay: NCI IVCLSP growth inhibition (SRB), NCI-H322M. The class given is cell-based, human. The note with it: 48 h drug incubation. How it is done: as §1, §2, §3, §4
The next assay relates to NCI-H460. Description: NCI IVCLSP growth inhibition (SRB), NCI-H460. The class given is cell-based, human. The note with it: 48 h drug incubation. The procedure:
as §1, §2, §3, §4

The next assay deals with NCI-H522. Description: NCI IVCLSP growth inhibition (SRB), NCI-H522. The class given is cell-based, human. The note with it: 48 h drug incubation. How it is done: as §1, §2, §3, §4
The subject of the next assay is SK-MEL-2. Description: NCI IVCLSP growth inhibition (SRB), SK-MEL-2. The class given is cell-based, human. Conditions: 48 h drug incubation. How it is done: as §1, §2, §3, §4
A further assay has as its system SK-MEL-5. Kind of assay: NCI IVCLSP growth inhibition (SRB), SK-MEL-5. The class given is cell-based, human. The note with it: 48 h drug incubation. How it is done: as §1, §2, §3, §4
Another assay has as its system 786-0. Description: NCI IVCLSP growth inhibition (SRB), 786-0. The class given is cell-based, human. The note with it: 48 h drug incubation. The procedure:
as §1, §2, §3, §4

A further assay has as its system HCT-116. Description: NCI IVCLSP growth inhibition (SRB), HCT-116. The class given is cell-based, human. Conditions: 48 h drug incubation. How it is done: as §1, §2, §3, §4
The subject of another assay is HT29. Kind of assay: NCI IVCLSP growth inhibition (SRB), HT29. Conditions: 48 h drug incubation. The class given is cell-based, human. The procedure: as §1, §2, §3, §4
A further assay has as its system SF-268. Kind of assay: NCI IVCLSP growth inhibition (SRB), SF-268. The class given is cell-based, human. Conditions: 48 h drug incubation. How it is done:
as §1, §2, §3, §4

The test system of a further assay is SF-295. Kind of assay: NCI IVCLSP growth inhibition (SRB), SF-295. The class given is cell-based, human. Conditions: 48 h drug incubation. How it is done:
as §1, §2, §3, §4

The subject of the next assay is SF-539. Description: NCI IVCLSP growth inhibition (SRB), SF-539. The class given is cell-based, human. The note with it: 48 h drug incubation. The procedure:
as §1, §2, §3, §4

The subject of a further assay is LOX IMVI. Kind of assay: NCI IVCLSP growth inhibition (SRB), LOX IMVI. The note with it: 48 h drug incubation. The class given is cell-based, human. The procedure:
as §1, §2, §3, §4

For another assay, the system named is UO-31. Description: NCI IVCLSP growth inhibition (SRB), UO-31. Conditions: 48 h drug incubation. The class given is cell-based, human. How it is done:
as §1, §2, §3, §4

Another assay deals with MDA-N. Description: NCI IVCLSP growth inhibition (SRB), MDA-N. The class given is cell-based, human. Conditions: 48 h drug incubation. How it is done: as §1, §2, §3, §4
The subject of the next assay is T-47D. Kind of assay: NCI IVCLSP growth inhibition (SRB), T-47D. The class given is cell-based, human. Conditions: 48 h drug incubation. How it is done:
as §1, §2, §3, §4

The subject of assay [1] is HL-60 human promyelocytic leukemia cells. Description: Flow cytometric cell cycle phase distribution. The class given is cell-based. Conditions: 24 hours treatment. How it is done:
Flow cytometric analyses were used to assess the effects of Compound 1 and various antimicrotubule drugs on the cell cycle phase distributions of HL-60 human promyelocytic leukemia cells. The percentage of cells in the G2/M phases were increased approximately 2-fold by treatment of the cells for 24 hours with either TAXOL (paclitaxel), vinblastine, colchicine, or Compound 1.

The next assay has as its system p53. Description: Western blot, p53 expression in MCF-7 cells. The class given is cell-based, human. The note with it: 24 hours, various concentrations. The procedure:
To further characterize the cell cycle effects of Compound 1 on human tumor cells, MCF-7 cells were treated for 24 hours with various concentrations of Compound 1, vinblastine, or TAXOL (paclitaxel). Cells were then harvested, lysed, and analyzed for levels of expression of p53 and WAF1 by Western Blot analyses. […] Compound 1 is identified as “149” in these figures. […] None of these treatments affected the expression of bcl-2 or P-tubulin in the MCF-7 cells.
For orientation: Immunoblotting shows a protein as a band on a membrane.

SMILES strings stand for the structures.

Consider `COc1cc(CCc2cn(Cc3ccccc3)c3nc(N)nc(C)c23)cc(OC)c1OC` [Compound 1], for which the concentration for 50% growth inhibition (GI50) in the assay with K-562 was found to be 84.6 nM; in the assay on RPM1-8226, 439 nM; in the assay on NCI-H226, 195 nM; in the assay with NCI-H322M, 581 nM; with NCI-H460 it was 162 nM; in the assay with NCI-H522 it was 47.7 nM. For the same compound, the concentration for 50% growth inhibition (GI50) came to 381 nM with SK-MEL-2; 61.1 nM in the assay on SK-MEL-5; 254 nM with 786-0; 286 nM in the assay on HCT-116; 281 nM in the assay on HT29; 669 nM with SF-268. Further, the GI50 in the assay with SF-295 was 41.8 nM; in the assay on SF-539 it was 74.5 nM; with LOX IMVI, 250 nM; in the assay on UO-31, 347 nM; in the assay with MDA-N it was less than 10 nM; in the assay with T-47D it was 563 nM. In assay [1] (HL-60), the “increase of the percentage of cells in the G2/M phases” value was “approximately 2 fold”. Besides, the “cell cycle distribution, G2/M” value in [1] (percentage of HL-60 cells) is reported as 9.7 ± 0.4. Moreover, in [1] (percentage of HL-60 cells), the “cell cycle distribution, G9/G1” value stood at 80.0 ± 2.4. Besides, the “cell cycle distribution, S” value in assay [1] (percentage of HL-60 cells) was found to be 10.3 ± 2.0. For the same compound, the “level of expression of p53 (in words)” value with p53 is “induced the expression”.

For orientation: GI50 means the concentration that inhibits growth by half.

For the origin of these results see patent US8501752B2, “Methods for treating cancer and other pathological proliferating disorders by inhibiting mitosis using pyrrolo[2,3-d]pyrimidines” (Duquesne University of the Holy Ghost, priority 2005, dated 2013).
